Patent US20240335433A1, “CELL CYCLE SYNCHRONIZATION PROCESS” (priority 2023, published 2024)
“Also recorded” adds a separate entry of the source.

Assays:
[1] = Removal of thymidine analogues from circulation (S phase labelling window after injection); settings: mouse, in vivo
Description: These two molecules become stably incorporated into DNA during DNA replication (S phase). When either is injected into mice, it labels at high levels only those tissue cells actively replicating DNA (in S phase) at that time. Because these drugs are both rapidly removed from circulation, only cells actively replicating DNA within 1 hour of injection are labelled. If the second drug is introduced into the same animal at a later time, thereafter, it too will label only those cells in S phase at the time of the second injection. The tissues are then collected and stained for BRDU and EDU with separate fluorescence tags. The intensity of each marker is then determined by fluorescent image analysis. Fortunately, it is the characteristic of dividing cells that these two labels are incorporated most efficiently into nuclei of cells near the middle of S phase. When the two injections are separated by the length of the cell cycle, therefore, both markers will be stained at maximal levels in the same cell. The cell cycle characteristics of a tissue can then be determined by comparing results following injections separated by increasing lengths of time.

mouse gut crypt cells = experiment: Cell cycle synchrony of gut crypt cells after repeated injections (EDU/BRDU incorporation, cyclin D1 staining); settings: for ability to induce cell cycle synchrony in the mouse gut: EDU: high concentrations; for cell cycle synchrony of gut cells: four 10-hour injections separated by 40 hours without injection, repeated four times
Description: All experiments were performed according to separate protocols approved by IACUC committees at the following institutions: the Northeast Ohio Medical University, and Case Western Reserve University. Studies of cell cycle length were approved by the IACUC of the Cleveland State University. Recall that the proliferating cells of the small intestine are located near the basement membrane in regions termed the crypt. Cells in this region are the only cells that proliferate in the gut, with the exception of rare proliferation of support cells in the matrix of the villi. Epithelial cells in the crypt region are essentially all proliferating all the time. Consequently, they are actively labeled by a pulse of EDU to label cells in S phase. Cells not labeled with EDU are in G2-G1 phases, and are labeled with cyclin D1 (FIG. 6).
Finally, the tissue was analyzed a full 10 hours following the final topotecan injection.
As a control to the above studies, the tissues described above were stained for the expression of cyclin D1. […] Thus, upon entry into S phase the level of cyclin D1 is always reduced to near zero. It returns to high levels of expression upon entry into G2 phase, but only in cells that are actively proliferating. Therefore, an actively proliferating cell would incorporate EDU if it were in S phase, and it would express cyclin D1 if it were in any other cell cycle phase. If all the cells of a tissue either incorporate EDU or express high cyclin D1 levels, all the cells of the tissue are actively proliferating. […] Further analysis was performed at 2 hour intervals from 0 hours to 10 hours following the final topotecan injection.
Separate animals received injections of 0.20 ml of topotecan at 0.33 mg/ml, 0.20 mg/ml, or 0.12 ml of 0.20 mg/ml topotecan. Each animal was given four 10-hour injections of a given concentration, separated by 40 hours without injection; repeated four times. At 5 hours following the final topotecan injection, BRDU was injected into the animals to identify cells in S phase between the timed topotecan injection. Animals injected with BRDU were then injected again 5 hours later with EDU (10 hours after the final topotecan injection), to identify cells in S phase at the time the next successive topotecan injection would have taken place. 50 min following the EDU injection tissues were collected and analyzed.

[2] = Description: Extensive studies were conducted to determine the optimal spacing between injections for C57Bl/6 mice, as differences between mouse strains might exist. […] After the 9 injections spaced apart by these times were complete, the animals were weighed over the next 10 days to determine their overall health. […]
Lewis lung carcinoma = Lewis lung carcinoma tumor growth in C57Bl/6 mice; type: in vivo, mouse; settings: for inhibition of Lewis lung carcinoma tumor growth: Cell Cycle Therapy, IP injections every 10 hours 40 min with rest periods
Description: The Lewis Lung Carcinoma model is a commonly used tumor model for assessment of general anti-tumor activity. The cells can be grown in culture and then introduced underneath the skin on the back of syngeneic […] mice. When 1-2 million cells are introduced, tumors begin to form within 6-10 days. This is an extremely aggressive tumor, with doubling times of 3 days or less. […] In this study 2 million cells were injected underneath the skin on the mid back of the mice. The tumor was measured with calipers to determine its size. To confirm size measurements, the tumor was excised in total and weighed at the end of the experiment. All anti-tumor drug injections were intraperitoneal (IP). Mice in the range of 8-16 weeks of age were utilized, but within a given experiment, mice within the same age range were generally used for comparison. All studies were conducted under standard guidelines, and conformed to the protocol approved the Case Western Reserve and the Northeast Ohio Medical University IACUC. Weight loss was measured to determine animal health, with loss of over 20% an indication for experimental termination. Similarly, tumors were not allowed to grow beyond 15% of body weight.
The ability of a treatment regimen to block tumor growth was determined with injections of topotecan, either alone or in combination with EDU. […] In this case, the increase of tumor size was measured. […] In general, EDU injections of 0.2 ml of 9 mg/ml drug (in phosphate buffered saline) were performed. These injections involved intermittent rest periods, generally 1-2 rest periods between 4-5 EDU injections. To increase the effectiveness of EDU injections, two such injections were at times performed within a 20 min period every 10 hours 40 min.
When higher volumes were injected (0.23 ml) the rest times were increased. […] With 0.2 ml injections of topotecan ([…]), three injections were often followed by 4-5 rest periods (FIGS. 12 and 13A-C).
EDU was always injected at 9 mg/ml (0.2 ml per injection). 1-3 such injections were followed immediately, or after 1-5 rest periods, by 1-4 injections of topotecan (0.18 ml, 0.2 mg/ml).
The experiment involved 24 C57Bl/6 mice, each of which received injections of 2 million Lewis lung carcinoma cells under the skin on their backs. Three days later these animals were randomly divided into three groups. The first group received three injections of topotecan separated by the length of the cell cycle (10 hours 40 min). The three-injection set was then followed by a long rest period precisely equal to 5 cell cycle lengths; and the process was repeated (FIG. 14C). For comparison, another set of mice received a single injection at the same time each day. […] All topotecan injections were identical (0.2 ml of 0.18 mg/ml topotecan). As a control, 8 mice received 0.2 ml injections of phosphate buffered saline (PBS) at the same time as the cell cycle group. […]

NIH3T3 = experiment: Cell cycle specific toxicity in NIH3T3 cultures (clonal survival after brief drug treatment); type: cell-based
Description: The examples were performed on the contact inhibited cell line, NIH3T3. […] They must be cultured so as to never reach confluence; since, like normal cells, they stop growing when becoming confluent on the culture plate. Thus, they are plated at 60,000 to 150,000 cells per 35 mm plate, and transferred to a new plate every 2-3 days. The cells must also be limited in passage number to ensure their growth rate is rapid. The definition of low passage cells will vary from one lab to another, and the actual cell cycle length of these cells may vary, but it is critical that from one experiment to another the length of the cell cycle remains constant.
Constant killing over a broad concentration range: The drug to be tested is diluted across a broad concentration range, and placed on separate actively proliferating NIH3T3 cultures for two hours. […] The plates are then fixed, stained with crystal violet, and the number of colonies counted and compared to a mock treated culture. […] Cloning of the cells following drug treatment allows a quantitative determination of the number of surviving cells.
Serum stimulated growth: NIH3T3 cells stop growing and enter quiescence when serum is reduced in the medium to 0.3%, so long as they are at a sufficient density on the plate. […] The drug to be analyzed is added for 3 hours at various times following serum addition, and then washed off. […]

[3] = system: Lewis lung carcinoma tumors; experiment: Cell cycle synchrony of Lewis lung carcinoma tumor cells (EDU labeling); type: in vivo, mouse; settings: 9 injections separated by 10 hours, tumor-bearing C57Black mice
Description: All studies of tumor killing were performed exactly as described above for studies of cell cycle synchrony. Thus, 9 injections of topotecan were separated from one another by 10 hours in C57Black mice carrying a tumor of approximately 0.5 gm. EDU was injected into three different topotecan treated animals at 1 hour, 5 hour or 10 hours as a marker for DNA synthesis. A control tumor-bearing mouse received mock injections and was injected with EDU 5 hours after the final injection. […] together with normal gut tissue was collected and analyzed.

DNA synthesis = experiment: Rate of DNA synthesis after topotecan (observation of the inventor)
Description: Topotecan treatments would be removed and followed at various times thereafter with an BRDU treatment.

[4] = remark: listed apart in the source
Description: Analyses began with approximately 10% of the LD50 concentration. It was then escalated until overall toxicity to the animals was observed. The final concentration of topotecan injected was 0.33 mg/ml-0.2 mg/ml; 0.05-0.27 ml per injection (depending on the mouse strain and weight of the mouse). Following determination of general topotecan toxicity following multiple injections, it was necessary to determine if, as predicted, injections spaced apart by the length of the cell cycle would be less harmful to the animals.
[…] […] […] Thus, 9 injections at 8 hours, or 9 injections at 12 hours, 14 hours, 16 hours or 20 hours were performed, and the effect of these upon the animals determined. The 8 hour time was selected to definitely be shorter than the cell cycle, and 20 hours to be longer than the cell cycle, so that negative controls would be built into the protocol.

[5] = injections every 24 hours for up to 20 days

O=c1[nH]c(=O)n([C@H]2C[C@H](O)[C@@H](CO)O2)cc1Br [BRDU, Bromodeoxyuridine]
time after injection within which replicating cells are labelled (rapid removal from circulation) [1]: ≤ 1 h

C#Cc1cn([C@H]2C[C@H](O)[C@@H](CO)O2)c(=O)[nH]c1=O [EDU, 5-Ethynyl-2′-deoxyuridine]
ability to induce cell cycle synchrony in the mouse gut (mouse gut crypt cells): shown to induce cell cycle synchrony
toxicity to animals ([2]; EDU injections): not highly toxic to animals
inhibition of Lewis lung carcinoma tumor growth (Lewis lung carcinoma): reduction in tumor growth; also recorded: highly efficient in blocking tumor growth

COc1cc([C@@H]2c3cc4c(cc3[C@@H](O[C@@H]3O[C@@H]5CO[C@@H](C)O[C@H]5[C@H](O)[C@H]3O)[C@H]3COC(=O)[C@H]23)OCO4)cc(OC)c1O [Etoposide]
width of concentration range selectively toxic for S phase cells (NIH3T3): 10 fold

N.N.[Cl][Pt][Cl] [cisplatin]
cell cycle synchrony of injected animals' cells (mouse gut crypt cells; repeated injections, any time between injections): at no time were the cisplatin injected cells synchronous
delay of tumor formation (Lewis lung carcinoma; daily injections): less than 3 days

CC[C@@]1(O)C(=O)OCc2c1cc1n(c2=O)Cc2cc3c(CN(C)C)c(O)ccc3nc2-1 [topotecan]
cell cycle synchrony of tumor cells (EDU labeling at 1, 5, 10 hours) [3]: had not been synchronized
effect on rate of DNA synthesis (DNA synthesis): dramatically reduces the rate of DNA synthesis
cell cycle synchrony of gut epithelial cells (mouse gut crypt cells; 9 injections every 10 hours): complete cell cycle synchrony
cell cycle phase / EDU incorporation of crypt cells (mouse gut crypt cells; 9 injections every 10 hours, 4 to 8 hours following the final injection): in S phase; also recorded: high levels of EDU incorporation
cell cycle phase / EDU incorporation of crypt cells (mouse gut crypt cells; 9 injections every 10 hours, 2 hours and 10 hours following the final injection): low levels of EDU incorporation; also recorded: not synthesizing DNA
cyclin D1 expression in crypt cells (mouse gut crypt cells; 9 injections every 10 hours, 5 hours after the final injection): greatly reduced proportion of the cells
gut cells in S phase (EDU incorporation) (mouse gut crypt cells; 9 injections every 10 hours, 5 hours following the final injection): essentially all the cells were in S phase; also recorded: efficiently labeled with EDU
gut cells in S phase (EDU incorporation) (mouse gut crypt cells; 9 injections every 10 hours, 10 hours following the final injection): none of the cells were in S phase; also recorded: very little EDU labeling
cyclin D1 expression in crypt cells (mouse gut crypt cells; 9 injections every 10 hours, immediately after or 10 hours following the final injection): expressed at high levels
gut cells in S phase (EDU incorporation) (mouse gut crypt cells; 9 injections every 10 hours, immediately following the final injection): no cells were in S phase
gut morphology, EDU incorporation and synchrony of crypt cells (mouse gut crypt cells; 9 injections separated by 9 hours): unhealthy gut morphology and few gut cells able to incorporate EDU; also recorded: no evidence of cell cycle synchrony
cell cycle synchrony of normal gut cells in tumor-bearing animals (mouse gut crypt cells; 9 injections separated by 10 hours, C57Black mice with Lewis lung carcinoma): induced cell cycle synchrony; also recorded: have been synchronized
synchronization of gut tissues (mouse gut crypt cells; 9 injections separated by times other than every 10 hours): In no case were the tissues synchronized
ability to induce cell cycle synchrony in the mouse gut (mouse gut crypt cells): shown to induce cell cycle synchrony
cell cycle synchrony of gut cells (mouse gut crypt cells; 0.20 ml of 0.33 mg/ml or 0.20 mg/ml): almost complete
cell cycle synchrony of gut cells (mouse gut crypt cells; injected concentration 0.12 mg/ml): very little if any synchrony
cell cycle synchrony of the gut (mouse gut crypt cells; [5]): cell cycle synchrony of the gut was observed
crypt cell division interval (mouse gut crypt cells; [5]): 12 h
toxicity to gut tissue (mouse gut crypt cells; mouse, in vivo): Even greater toxicity
total amount of drug tolerated by the animals ([4]; 4 injections every 10 hours separated by 40 hours without injection): increased
ability of animals to survive repeated injections ([4]; 9 injections at 8, 12, 14, 16 or 20 hours between injections): had to be euthanized
injection spacing best tolerated ([2]; 9 injections, spacings 9 h 30 min to 11 h 20 min, weight over next 10 days, C57Bl/6 mice): 10 hours 40 minutes
percent weight loss, injections separated by cell cycle length compared to daily injections ([2]; mouse, in vivo): dramatically reduced
toxicity on continued injections ([2]; mouse, in vivo): without developing significant toxicity
inhibition of tumor appearance, longer than in untreated animals (Lewis lung carcinoma; Cell Cycle Therapy with injections every 10 hours 40 minutes and rest periods): 7 to 12 days
inhibition of Lewis lung carcinoma tumor growth (Lewis lung carcinoma): dramatically inhibited; also recorded: highly efficient in blocking tumor growth
tumor growth compared to the control group (Lewis lung carcinoma; FIG. 14B, both topotecan treatments (Cell Cycle and Daily)): dramatic decreases in tumor growth
reduction of tumor size (Lewis lung carcinoma; Lewis lung carcinoma, any treatment protocol tested): never been found in these studies to reduce tumor size
average tumor size relative to PBS treated animals (Lewis lung carcinoma; either protocol (Cell Cycle or daily), 9.5 days): ¼
tumor killing (Lewis lung carcinoma; [5]): tumor killing was enhanced
